The results in this text go back to patent US20210220356A1, “DIHYDROPYRIMIDINE DERIVATIVES AND USES THEREOF IN THE TREATMENT OF HBV INFECTION OR OF HBV-INDUCED DISEASES” (Janssen Sciences Ireland Unlimited Company, priority 2018, published 2021).

A short description of data set [1]: Cytotoxicity determination in HepG2.2.15 cells (CCK-8). To be noted: human, HepG2.2.15 cells, HepG2.2.15 cells, 5,000 cells/well, 6 days of compound treatment, CCK-8 absorbance 450 nm, highest concentration 100 uM. It is filed as cell-based. In outline:
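HepG2.2.15 cells, 5,000/well in 2% FBS medium, treated 6 days with compound (medium refreshed midway), 8-point 3-fold dilutions from 100 uM top. Viability read by CCK-8, 2.5 h at 37° C, absorbance 450 nm with 630 nm reference; CC50 from curve fitting.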

Data set [2] concerns HBV. The experiment in a line: HBV inhibitory activity in HepG2.2.15 cells (HBV DNA in culture medium by q-PCR). It is filed as cell-based. To be noted: HepG2.2.15 cells, 40,000 cells/well, 6 days of compound treatment, HBV DNA in culture medium by q-PCR, highest concentration 10 uM, read-out: EC50. In outline: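 HepG2.2.15 cells (40,000/well, 2% FBS) treated 6 days with compounds, medium refreshed once; 8 points, 3-fold dilution, top 10 uM. Secreted HBV DNA in medium extracted and quantified by q-PCR; EC50 calculated from dose-response.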

Setting [3] is: Hepatitis B virus, HepG2.2.15, 144 h.

Each structure is given as a SMILES string. Where two headings read alike, the source gives them in different places.

A word on the CC50: it is the concentration at which the toxic effect on the cells reaches its halfway point. The term EC50 denotes the concentration needed to bring the measured effect to its halfway point. On to `COC(=O)C1=C(C2CCc3nn(CCC(=O)O)cc3C2)NC(c2nccs2)=NC1c1ccc(F)c(F)c1Br` (single isomer, unassigned) [Compound 46a, 3-(5-(6-(2-Bromo-3,4-difluorophenyl)-5-(methoxycarbonyl)-2-(thiazol-2-yl)-3,6-dihydropyrimidin-4-yl)-4,5,6,7-tetrahydro-2H-indazol-2-yl)propanoic acid], for which half-maximal cytotoxicity in data set [1] (CC50 at 6 days) was put at 17300 nM. In addition, the EC50 in data set [2] came out at 219 nM.
For `CCOC(=O)C1=C(C2CCc3nn(CCCC(=O)O)cc3C2)NC(c2nccs2)=NC1c1ccc(F)c(F)c1Cl` (single isomer, unassigned) [Compound 50b, 4-(5-(6-(2-Chloro-3,4-difluorophenyl)-5-(ethoxycarbonyl)-2-(thiazol-2-yl)-3,6-dihydropyrimidin-4-yl)-4,5,6,7-tetrahydro-2H-indazol-2-yl)butanoic acid], in that order: 12600 nM and 116 nM.
For `CCOC(=O)C1=C(C2CCc3nn(C(C)CC(=O)O)cc3C2)NC(c2nccs2)=NC1c1ccc(F)c(F)c1Cl` (single isomer, unassigned) [Compound 51b, 3-(5-(6-(2-chloro-3,4-difluorophenyl)-5-(ethoxycarbonyl)-2-(thiazol-2-yl)-3,6-dihydropyrimidin-4-yl)-4,5,6,7-tetrahydro-2H-indazol-2-yl)butanoic acid], the 50% cytotoxic concentration (CC50) at 6 days in data set [1] came out at 7700 nM. The concentration giving a half-maximal response (EC50) in data set [2] was determined as 11.7 nM.
Regarding `CCOC(=O)C1=C(C2CCc3nn(CC(C)(C)C(=O)O)cc3C2)NC(c2nccs2)=NC1c1ccc(F)c(F)c1Cl` (single isomer, unassigned) [Compound 53a, 3-(5-(6-(2-Chloro-3,4-difluorophenyl)-5-(ethoxycarbonyl)-2-(thiazol-2-yl)-3,6-dihydropyrimidin-4-yl)-4,5,6,7-tetrahydro-2H-indazol-2-yl)-2,2-dimethylpropanoic acid], in data set [1], the half-maximal cytotoxic concentration (CC50) at 6 days was 7200 nM. Moreover, the half-maximal effective concentration (EC50) in data set [2] is 132 nM.
In turn, `CCOC(=O)C1=C(C2CCc3oc(CCC(=O)O)nc3C2)NC(c2nccs2)=NC1c1ccc(F)c(F)c1Cl` (single isomer, unassigned) [Compound 57c, 3-(5-(6-(2-Chloro-3,4-difluorophenyl)-5-(ethoxycarbonyl)-2-(thiazol-2-yl)-3,6-dihydropyrimidin-4-yl)-4,5,6,7-tetrahydrobenzo[d]oxazol-2-yl)propanoic acid] gave a 50% cytotoxic concentration (CC50) at 6 days in data set [1] of 7700 nM. Moreover, the 50% effective concentration (EC50) in data set [2] is 12.5 nM.
In data set [1], `CCOC(=O)C1=C(C2CCc3nc(CCC(=O)O)oc3C2)NC(c2nccs2)=NC1c1ccc(F)c(F)c1Cl` (single isomer, unassigned) [Compound 58b, 3-(6-(6-(2-Chloro-3,4-difluorophenyl)-5-(ethoxycarbonyl)-2-(thiazol-2-yl)-3,6-dihydropyrimidin-4-yl)-4,5,6,7-tetrahydrobenzo[d]oxazol-2-yl)propanoic acid] displayed a CC50 at 6 days of 9800 nM. In addition, the EC50 in data set [2] (setting [3]) stood at 6.2 nM.
`CCOC(=O)C1=C(C2CCc3sc(CCC(=O)O)nc3C2)NC(c2nccs2)=NC1c1ccc(F)c(F)c1Cl` (single isomer, unassigned) [Compound 59c, 3-(5-(6-(2-Chloro-3,4-difluorophenyl)-5-(ethoxycarbonyl)-2-(thiazol-2-yl)-3,6-dihydropyrimidin-4-yl)-4,5,6,7-tetrahydrobenzo[d]thiazol-2-yl)propanoic acid] came in with a CC50 at 6 days in data set [1] of 4100 nM. In addition, the 50% effective concentration (EC50) in data set [2] (setting [3]) came out at 132 nM.
As to `CCOC(=O)C1=C(C2CCc3nc(CCC(=O)O)sc3C2)NC(c2nccs2)=NC1c1ccc(F)c(F)c1Cl` (single isomer, unassigned) [Compound 60b, 3-(6-(6-(2-Chloro-3,4-difluorophenyl)-5-(ethoxycarbonyl)-2-(thiazol-2-yl)-3,6-dihydropyrimidin-4-yl)-4,5,6,7-tetrahydrobenzo[d]thiazol-2-yl)propanoic acid], in data set [1], the CC50 at 6 days was 3400 nM. The EC50 in data set [2] (setting [3]) is 24.1 nM.
In data set [1], `COC(=O)C1=C(C2CCc3[nH]ncc3C2)NC(c2nccs2)=NC1c1ccc(F)c(F)c1Cl` (single isomer, unassigned) [Compound 65a, Methyl 4-(2-chloro-3,4-difluorophenyl)-6-(4,5,6,7-tetrahydro-1H-indazol-5-yl)-2-(thiazol-2-yl)-1,4-dihydropyrimidine-5-carboxylate] had a half-maximal cytotoxic concentration (CC50) at 6 days of 11800 nM. For the same compound, the half-maximal effective concentration (EC50) in data set [2] stood at 56.3 nM.
The corresponding values for `COC(=O)C1=C(C2CCc3nn(CCC(=O)O)cc3C2)NC(c2nccs2)=NC1c1ccc(F)c(F)c1Cl` (single isomer, unassigned) [Compound 70b, 3-(-5-(6-(2-chloro-3,4-difluorophenyl)-5-(methoxycarbonyl)-2-(thiazol-2-yl)-3,6-dihydropyrimidin-4-yl)-4,5,6,7-tetrahydro-2H-indazol-2-yl)propanoic acid] are 22700 nM and 83 nM.
With `COC(=O)C1=C(C2CCc3nc([C@H]4C[C@H](C(=O)O)C4)oc3C2)NC(c2nccs2)=NC1c1ccc(F)c(F)c1Cl` (single isomer, unassigned) [Compound 72b, (trans)-3-(6-(6-(2-Chloro-3,4-difluorophenyl)-5-(methoxycarbonyl)-2-(thiazol-2-yl)-3,6-dihydropyrimidin-4-yl)-4,5,6,7-tetrahydrobenzo[d]oxazol-2-yl)cyclobutanecarboxylic acid], half-maximal cytotoxicity in data set [1] (CC50 at 6 days) was put at 7000 nM. Besides, the EC50 in data set [2] came out at 21.5 nM.
The corresponding values for `COC(=O)C1=C(C2CCc3nn(CCCC(=O)O)cc3C2)NC(c2nccs2)=NC1c1ccc(F)c(F)c1Cl` (single isomer, unassigned) [Compound 74B, 4-(5-(6-(2-chloro-3,4-difluorophenyl)-5-(methoxycarbonyl)-2-(thiazol-2-yl)-3,6-dihydropyrimidin-4-yl)-4,5,6,7-tetrahydro-2H-indazol-2-yl)butanoic acid] are 19600 nM and 66.1 nM.
On to `COC(=O)C1=C(C2CCc3nn(C(C)(C)CC(=O)O)cc3C2)NC(c2nccs2)=NC1c1ccc(F)c(F)c1Cl` (single isomer, unassigned) [Compound 82b], for which the CC50 at 6 days in data set [1] was determined as 15900 nM. Also, the concentration for a half-maximal effect (EC50) in data set [2] was found to be 86.1 nM.
Take `CCOC(=O)C1=C(C2CCc3nn([C@H]4C[C@H](C(=O)O)C4)cc3C2)NC(c2nccs2)=NC1c1ccc(F)c(F)c1Cl` (stereo partly drawn) [Compound 54, (trans)-3-(5-(6-(2-Chloro-3,4-difluorophenyl)-5-(ethoxycarbonyl)-2-(thiazol-2-yl)-3,6-dihydropyrimidin-4-yl)-4,5,6,7-tetrahydro-2H-indazol-2-yl)cyclobutanecarboxylic acid]: the CC50 at 6 days in data set [1] amounted to 16000 nM. In addition, the concentration giving a half-maximal response (EC50) in data set [2] (setting [3]) was 19.8 nM.
Turning to `CCOC(=O)C1=C(C2Cc3cn(CCC(=O)O)nc3C(C)(C)C2)NC(c2nccs2)=NC1c1ccc(F)c(F)c1Cl` (stereo not shown) [Compound 55a, 3-(5-(6-(2-chloro-3,4-difluorophenyl)-5-(ethoxycarbonyl)-2-(thiazol-2-yl)-3,6-dihydropyrimidin-4-yl)-7,7-dimethyl-4,5,6,7-tetrahydro-2H-indazol-2-yl)propanoic acid], the CC50 at 6 days in data set [1] is 8500 nM. For the same compound, the EC50 in data set [2] stood at 81 nM.
In turn, `CCOC(=O)C1=C(C2CCc3c(cn(CCC(=O)O)c3C#N)C2)NC(c2nccs2)=NC1c1ccc(F)c(F)c1Cl` (stereo not shown) [Compound 62, 3-(5-(6-(2-Chloro-3,4-difluorophenyl)-5-(ethoxycarbonyl)-2-(thiazol-2-yl)-3,6-dihydropyrimidin-4-yl)-1-cyano-4,5,6,7-tetrahydro-2H-isoindol-2-yl)propanoic acid] yielded a CC50 at 6 days in data set [1] of 5000 nM. Also, the EC50 in data set [2] (setting [3]) was determined as 6.9 nM.
`CCOC(=O)C1=C(C2CCc3cn(CCC(=O)O)c(C#N)c3C2)NC(c2nccs2)=NC1c1ccc(F)c(F)c1Cl` (stereo not shown) [Compound 63, 3-(6-(6-(2-Chloro-3,4-difluorophenyl)-5-(ethoxycarbonyl)-2-(thiazol-2-yl)-3,6-dihydropyrimidin-4-yl)-1-cyano-4,5,6,7-tetrahydro-2H-isoindol-2-yl)propanoic acid] yielded a half-maximal cytotoxic concentration (CC50) at 6 days in data set [1] of 5100 nM. In addition, in data set [2] (setting [3]), the concentration for a half-maximal effect (EC50) turned out to be 436 nM.
Take `COC(=O)C1=C(C2CCc3nc(CCC(=O)O)ncc3C2)NC(c2nccs2)=NC1c1ccc(F)c(F)c1Cl` (stereo not shown) [Compound 64, 3-(6-(6-(2-Chloro-3,4-difluorophenyl)-5-(methoxycarbonyl)-2-(thiazol-2-yl)-3,6-dihydropyrimidin-4-yl)-5,6,7,8-tetrahydroquinazolin-2-yl)propanoic acid]: half-maximal cytotoxicity in data set [1] (CC50 at 6 days) was put at 26400 nM. Further, in data set [2] (setting [3]), the concentration for a half-maximal effect (EC50) was 70 nM.
For `CCOC(=O)C1=C(C2CCc3[nH]ncc3C2)NC(c2nccs2)=NC1c1ccc(F)c(F)c1Cl` (stereo not shown) [Compound 66, Ethyl 4-(2-chloro-3,4-difluorophenyl)-6-(4,5,6,7-tetrahydro-1H-indazol-5-yl)-2-(thiazol-2-yl)-1,4-dihydropyrimidine-5-carboxylate], in that order: 6400 nM and 64.7 nM.
Turning to `COC(=O)C1=C(C2CCc3nn(CCC(=O)O)cc3C2)NC(c2nccs2)=NC1c1ccc(F)c(F)c1C` (stereo not shown) [Compound 76c, 3-(5-(6-(3,4-difluoro-2-methylphenyl)-5-(methoxycarbonyl)-2-(thiazol-2-yl)-3,6-dihydropyrimidin-4-yl)-4,5,6,7-tetrahydro-2H-indazol-2-yl)propanoic acid], in data set [1], it took 16100 nM to reach half-maximal cytotoxicity (CC50 at 6 days). Moreover, in data set [2] (setting [3]), the EC50 is 13 nM.
